Test results taken from patent US9023384B2, “Liposome and method for injecting substance to cell using this liposome” (Tokyo Medical and Dental University, priority 2004, dated 2015).

Assays:
[1] = system: NFκB activity in U2OS cells carrying expressed Cx43; assay: NF-kB reporter gene assay (intracellular luciferase activity) after IL-1β stimulation; format: cell-based
Description: As schematically shown in FIG. 6, an IKK complex is activated by IL-1β stimulation or the like and thereby phosphorylates IκB. The phosphorylated IκB is further polyubiquitinated and degraded by a pathway in a proteasome system. As a result, the suppressive effect of IκB on NFκB (p50+p65) disappears. The nuclear-imported NFκB increases the transcriptional activity of a gene of interest. A NEMO Binding Domain ((SEQ ID NO:3); hereinafter, NBD) is known to be a sequence present in the C-terminus of IKKβ, one component in the IKK complex, and be necessary for binding with IKKγ (NEMO). The solubilized NBD oligopeptide originally suppresses normal IKK functions through its competitive inhibition of the binding of IKKβ with NEMO and thereby suppresses the nuclear import of NFκB and the transcription of a gene of interest. […] Thus, in this example, a liposome having connexon consisting of Cx43 was used to attempt the administration of the NBD peptide into cells via a gap junction.
Specifically, the U2OS cells used in Example 2 was initially cultured until 80 to 90% density in a 10-cm culture dish, on which a liposome containing the NBD peptide was then allowed to act for 12 hours. In this example, the liposome used was constructed in the same way as in Example 1 except that a solution used contained 50 μL of the NBD peptide. […]

[2] = system: COX-2 mRNA in U2OS cells carrying expressed Cx43; assay: COX-2 expression by RT-PCR after IL-1 stimulation; format: cell-based
Experimental: Specifically, the U2OS cells used in Example 2 was initially cultured until 80 to 90% density in a 10-cm culture dish, on which a liposome containing the NBD peptide was then allowed to act for 12 hours. In this example, the liposome used was constructed in the same way as in Example 1 except that a solution used contained 50 μL of the NBD peptide.
In FIG. 8, “Cx-U2OS” denotes a result obtained using a liposome having connexon, and “U2OS” denotes a result obtained using a liposome having no connexon. […] Moreover, the suppression of COX-2 expression was not confirmed in the administration of NBD alone, the administration of NBD using the liposome having no Cx43 expression, administration after pretreatment with GA, and the administration of mutant NBD. Furthermore, the NBD effect was not confirmed on U2OS having no Cx43 expression.

| Molecule | effect of pretreatment with gap junction inhibitor on the NBD effect on NFκB activity ([1]; pretreatment before NBD administration using Cx43-expressing liposome) | suppression of COX-2 expression by NBD administration after pretreatment with GA ([2]; pretreatment with GA) | suppression of IL-1β stimulation-induced rises in NFκB activity ([1]; liposome for 12 hours, then IL-1β for 24 hours, cells carrying expressed Cx43) | suppression of IL-1 stimulation-induced rises in COX-2 expression ([2]; cells carrying expressed Cx43) |
| --- | --- | --- | --- | --- |
| CC1(C)[C@@H](O)CC[C@]2(C)[C@H]3C(=O)C=C4[C@@H]5C[C@@](C)(C(=O)O)CC[C@]5(C)CC[C@@]4(C)[C@]3(C)CC[C@@H]12 [18β-glycyrrhetinic acid] | suppressed the NBD effect | not confirmed |  |  |
| NBD peptide: NEMO Binding Domain oligopeptide (SEQ ID NO:3), administered without liposome (TALDWSWLQTE; listed as Homo sapiens) |  |  | not confirmed | not confirmed |
